According to patent US20240417370A1, “LIPIDS FOR USE IN LIPID NANOPARTICLE FORMULATIONS” (Acuitas Therapeutics, Inc., priority 2023, published 2024):

Test system: human IgG in mouse serum
Experiment: Immunoglobulin G (IgG) mRNA in vivo evaluation using lipid nanoparticle compositions
Design: species or system mice
Details: LNP-formulated lipid, tail vein injection, μg IgG/mL serum 24 hours after administration; for Serum IgG @ 0.3 mg/kg: 0.3 mg mRNA/kg; for Serum IgG @ 1.0 mg/kg: 1.0 mg mRNA/kg
Experimental: A lipid of structure (I), DSPC, cholesterol and PEG-lipid are solubilized in ethanol at a molar ratio of 50:10:38.5:1.5 or 47.5:10:40.7:1.8. Lipid nanoparticles (LNP) are prepared at a total lipid to mRNA weight ratio of approximately 10:1 to 40:1. Briefly, the mRNA is diluted to 0.2 mg/mL in 10 to 50 mM citrate buffer, pH 4 to 6 or 10 to 25 mM acetate buffer, pH 4 to 6. Syringe pumps are used to mix the ethanolic lipid solution with the mRNA aqueous solution at a ratio of about 1:5 to 1:3 (vol/vol) with total flow rates above 15 mL/min. The ethanol is then removed, and the external buffer replaced with PBS by dialysis. Finally, the lipid nanoparticles are filtered through a 0.2 µm pore sterile filter.
Studies are performed in 6-8-week-old CD-1/ICR mice (Envigo, Charles River, or Inotiv) according to guidelines established by an institutional animal care committee (ACC) and the Canadian Council on Animal Care (CCAC). Varying doses of mRNA-lipid nanoparticle are systemically administered by tail vein injection and animals euthanized at a specific time point (e.g., 24 hours) post-administration. The whole blood is collected, and the serum subsequentially separated by centrifuging the tubes of the whole blood at 2000×g for 10 minutes at 4° C. and stored at −80° C. until use for analysis.
For immunoglobulin G (IgG) ELISA (Life Diagnostics Human IgG ELISA kit), the serum samples are diluted at 100 to 20,000 folds with 1× diluent solution. 100 μL of diluted serum is dispensed into anti-human IgG coated 96-well plate in duplicate alongside human IgG standards and incubated in a plate shaker at 150 rpm at 25° C. for 45 minutes. The wells are washed 5 times with 1× wash solution using a plate washer (400 μL/well). 100 μL of HRP conjugate is added into each well and incubated in a plate shaker at the same condition above. The wells are washed 5 times again with 1× wash solution using a plate washer (400 μL/well). 100 μL of TMB reagent is added into each well and incubated in a plate shaker at the same condition above. The reaction is stopped by adding 100 μL of Stop solution to each well. The absorbance is read at 450 nm (A450) with a microplate reader. The amount of human IgG in mouse serum is determined by plotting A450 values for the assay standard against human IgG concentration.
Representative compounds of the disclosure shown in Table 2 were formulated using the following molar ratio: 50% cationic lipid/10% distearoylphosphatidylcholine (DSPC)/38.5% Cholesterol/1.5% PEG lipid 2-[2-(ω-methoxy(polyethyleneglycol2000)ethoxy]-N,N-ditetradecylacetamide) or 47.5% cationic lipid/10% DSPC/40.7% Cholesterol/1.8% PEG lipid. Relative activity was determined by measuring luciferase expression in the liver 4 hours following administration via tail vein injection as described in Example 1 or by measuring the amount of human IgG in mouse serum as described in example 2. The activity was compared at a dose of 1.0 or 0.5 or 0.3 mg mRNA/kg and expressed as ng luciferase/g liver measured 4 hours after administration, as described in Example 1 or as μg IgG/mL serum measured 24 hours after administration, as described in Example 2. Compound numbers in Table 2 refer to the compound numbers of Table 1.

Compound	Serum IgG @ 0.3 mg/kg	Serum IgG @ 1.0 mg/kg
CCCCCCCCCCN(CCCCCCCCCC)C(=O)CCCCCCCN(CCCCCCCC(=O)N(CCCCCCCCCC)CCCCCCCCCC)[C@H]1CC[C@@](C)(O)CC1 [(1S, 4S) I-25, 8,8′-(((1S,4S)-4-hydroxy-4-methylcyclohexyl)azanediyl)bis(N,N-didecyloctanamide)]	39.96 ± 10.72 µg/mL	194.38 ± 27.83 µg/mL
CCCCCCCCCCN(CCCCCCCCCC)C(=O)CCCCCCCCCN(CCCCCCCCCC(=O)N(CCCCCCCCCC)CCCCCCCCCC)[C@H]1CC[C@@H](O)CC1 [(1S, 4S) I-60, 10,10′-(((1s,4s)-4-hydroxycyclohexyl)azanediyl)bis(N,N-didecyldecanamide)]	15.65 ± 5.31 µg/mL	–
CCCCCCCCCCN(CCCCCCCCCC)C(=O)CCCCCCCN(CCCCCCCC(=O)N(CCCCCCCCCC)CCCCCCCCCC)[C@@H]1CC[C@@H](O)C1 (racemic) [(rac)-(1RS, 3RS) I-14, 8,8′-(((1r,3r)-3-hydroxycyclopentyl)azanediyl)bis(N,N-didecyloctanamide); 8,8′-(((1s,3s)-3-hydroxycyclopentyl)azanediyl)bis(N,N-didecyloctanamide)]	11.48 ± 1.87 µg/mL	45.96 ± 11.03 µg/mL
CCCCCCCCCCN(CCCCCCCCCC)C(=O)CCCCCCCN(CCCCCCCC(=O)N(CCCCCCCCCC)CCCCCCCCCC)[C@H]1C[C@@H](O)C1 [(1S, 3S) I-10, 8,8′-(((1S,3S)-3-hydroxycyclobutyl)azanediyl)bis(N,N-didecyloctanamide)]	27.62 ± 9.67 µg/mL	187.67 ± 66.41 µg/mL
CCCCCCCCCCN(CCCCCCCCCC)C(=O)CCCCCCCN(CCCCCCCC(=O)N(CCCCCCCCCC)CCCCCCCCCC)C1CCCC1O (racemic) [(rac)-(1RS, 2SR) I-48, 8,8′-(((1s,2r)-2-hydroxycyclopentyl)azanediyl)bis(N,N-didecyloctanamide)]	43.32 ± 11.04 µg/mL	161.75 ± 26.50 µg/mL
CCCCCCCCCCN(CCCCCCCCCC)C(=O)CCCCCCCN(CCCCCCCC(=O)N(CCCCCCCCCC)CCCCCCCCCC)[C@@H]1CC[C@H](O)C1 (racemic) [(rac)-(1RS, 3SR) I-14, 8,8′-(((1r,3s)-3-hydroxycyclopentyl)azanediyl)bis(N,N-didecyloctanamide); 8,8′-(((1s,3r)-3-hydroxycyclopentyl)azanediyl)bis(N,N-didecyloctanamide)]	15.74 ± 5.71 µg/mL	66.16 ± 16.66 µg/mL
CCCCCCCCCCN(CCCCCCCCCC)C(=O)CCCCCCCN(CCCCCCCC(=O)N(CCCCCCCCCC)CCCCCCCCCC)[C@H]1CCCC[C@H]1O [(1S, 2R) I-16, 8,8′-(((1S,2R)-2-hydroxycyclohexyl)azanediyl)bis(N,N-didecyloctanamide)]	19.42 ± 7.21 µg/mL	88.40 ± 26.36 µg/mL
CCCCCCCCCCN(CCCCCCCCCC)C(=O)CCCCCCCN(CCCCCCCC(=O)N(CCCCCCCCCC)CCCCCCCCCC)C1CCC(O)CC1 (stereo not drawn) [Compound I-9, 8,8′-((4-hydroxycyclohexyl)azanediyl)bis(N,N-didecyloctanamide)]	35.77 ± 4.50 µg/mL	–
CCCCCCCCCCCCN(CCCCCCCC)C(=O)CCCCCCCN(CCCCCCCC(=O)N(CCCCCCCCCC)CCCCCCCCCC)[C@H]1CC[C@@H](O)CC1 [(1S, 4S) I-55, N,N-didecyl-8-((8-(dodecyl(octyl)amino)-8-oxooctyl)((1s,4s)-4-hydroxycyclohexyl)amino)octanamide]	72.2 ± 14.87 µg/mL	–
CCCCCCCCCCN(CCCCCCCCN(CCCCCCCC(=O)N(CCCCCCCCCC)CCCCCCCCCC)[C@H]1CC[C@@H](O)CC1)C(=O)CCCCCCCCC [(1S, 4S) I-47, N-decyl-N-(8-((8-(didecylamino)-8-oxooctyl)((1s,4s)-4-hydroxycyclohexyl)amino)octyl)decanamide]	55.53 ± 11.50 µg/mL	158.59 ± 40.38 µg/mL
CCCCCCCCCCN(CCCCCCCCCC)C(=O)CCCCCCCN(CCCCCCCC(=O)N(CCCCCCCCCC)CCCCCCCCCC)[C@H]1CC[C@@H](O)CC1 [(1S, 4S) I-9, 8,8′-(((1s,4s)-4-hydroxycyclohexyl)azanediyl)bis(N,N-didecyloctanamide)]	97.57 ± 19.26 µg/mL	257.42 ± 91.86 µg/mL
CCCCCCCCCCN(CCCCCCCCCC)C(=O)CCCCCCCN(CCCCCCCC(=O)N(CCCCCCCCCC)CCCCCCCCCC)[C@H]1CCC[C@H]1O [(1S, 2R) I-15, 8,8′-(((1S,2R)-2-hydroxycyclopentyl)azanediyl)bis(N,N-didecyloctanamide)]	33.97 ± 18.40 µg/mL	225.79 ± 54.78 µg/mL
CCCCCCCCCCN(CCCCCCCCCC)C(=O)CCCCCCCN(CCCCCCCC(=O)N(CCCCCCCCCC)CCCCCCCCCC)[C@H]1C[C@H](CO)C1 [(1R, 3R) I-24, 8,8′-(((1R,3R)-3-(hydroxymethyl)cyclobutyl)azanediyl)bis(N,N-didecyloctanamide)]	6.93 ± 2.48 µg/mL	19.77 ± 5.43 µg/mL
CCCCCCCCC(CCCCCCCC)N(CCCC)C(=O)CCCCCCCN(CCCCCCCC(=O)N(CCCC)C(CCCCCCCC)CCCCCCCC)[C@H]1CC[C@@H](O)CC1 [(1S, 4S) I-54, 8,8′-(((1s,4s)-4-hydroxycyclohexyl)azanediyl)bis(N-butyl-N-(heptadecan-9-yl)octanamide)]	43.22 ± 12.97 µg/mL	–
CCCCCCCCCCN(CCCCCCCCCC)C(=O)CCCCCCCCCN(CCCCCC(=O)N(CCCCCCCCCC)CCCCCCCCCC)[C@H]1CC[C@@H](O)CC1 [(15, 4S) I-61, N,N-didecyl-10-((6-(didecylamino)-6-oxohexyl)((1s,4s)-4-hydroxycyclohexyl)amino)decanamide]	40.66 ± 9.70 µg/mL	–
CCCCCCCCCCN(CCCCCCCCN(CCCCCCCC(=O)N(CCCCCCCCCC)CCCCCCCCCC)C[C@H]1C[C@@H](O)C1)C(=O)CCCCCCCCC [(1S, 3S) I-21, N-decyl-N-(8-((8-(didecylamino)-8-oxooctyl)(((1S,3S)-3-hydroxycyclobutyl)methyl)amino)octyl)decanamide]	71.49 ± 12.31 µg/mL	–
CCCCCCCCCCN(CCCCCCCCCC)C(=O)CCCCCCCN(CCCCCCCC(=O)N(CCCCCCCCCC)CCCCCCCCCC)[C@@H]1CCC[C@@H](O)C1 [(1R, 3R) I-17, 8,8′-(((1R,3R)-3-hydroxycyclohexyl)azanediyl)bis(N,N-didecyloctanamide)]	27.97 ± 3.37 µg/mL	178.14 ± 33.27 µg/mL
CCCCCCCCCCN(CCCCCCCCCC)C(=O)CCCCCCCN(CCCCCCCC(=O)N(CCCC)C(CCCCCCCC)CCCCCCCC)[C@H]1CC[C@@H](O)CC1 [(1S, 4S) I-59, N-butyl-8-((8-(didecylamino)-8-oxooctyl)((1s,4s)-4-hydroxycyclohexyl)amino)-N-(heptadecan-9-yl)octanamide]	84.23 ± 17.22 µg/mL	–
CCCCCCCCCCN(CCCCCCCCCC)C(=O)C(F)CCCCCCN(CCCCCCC(F)C(=O)N(CCCCCCCCCC)CCCCCCCCCC)[C@H]1CC[C@@H](O)CC1 (stereo partly drawn) [(1S, 4S) I-49, 8,8′-(((1s,4s)-4-hydroxycyclohexyl)azanediyl)bis(N,N-didecyl-2-fluorooctanamide)]	60.49 ± 26.40 µg/mL	332.8 ± 57.13 µg/mL
CCCCCCCCCCN(CCCCCCCCCC)C(=O)CCCCCCCN(CCCCCCCC(=O)N(CCCCCCCCCC)CCCCCCCCCC)[C@H]1CC[C@H](O)CC1 [(1R, 4R) I-9, 8,8′-(((1R,4R)-4-hydroxycyclohexyl)azanediyl)bis(N,N-didecyloctanamide)]	45.52 ± 6.25 µg/mL	204.57 ± 48.15 µg/mL
